The source of these data is PubChem BioAssay (NCI).

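48-hour exposure; five concentrations; linearly interpolated endpoints. At the GI50, growth is halved. TGI: total growth inhibition.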

Assay in all cases: NCI anticancer screen, dose series, 48 h
Assay [1] has as its system LOX IMVI melanoma.
Assay [2] has as its system HOP-62 NSCLC.
In assay [3] the test system is NCI-H226 lung.
Assay [4] has as its system HOP-92 NSCLC.
The test system of assay [5] is SN12C renal.
Assay [6] relates to MOLT-4 leukemia.
For assay [7], the system named is SNB-19 CNS.
In assay [8] the test system is M14 melanoma.
Assay [9] relates to SF-539 CNS.
Assay [10] has as its system RXF 393 renal.

As to `COc1ccc(CCN=C2CCC(C(=O)NCCc3ccc(OC)c(OC)c3)N2)cc1OC` (stereo unspecified), the TGI in assay [1], in assay [2], in assay [3], in assay [4], in [5] and in assay [6] was > 100 µM each time. The TGI in assay [7] and in assay [8] was > 100 µM throughout.
With `CC(=O)C1C(=O)N(C(C)C)C[C@@H]2CCC(=O)C[C@H]12` (stereo partly specified), the TGI in [1], in assay [2], in assay [4], in [5], in [9] and in assay [10] was > 100 µM throughout. Besides, the TGI in assay [6], in assay [7] and in assay [8] was > 100 µM throughout.
Take `Cc1c(C(=O)CSc2nc3ccccc3[nH]2)c(=O)n(-c2ccccc2)n1C`: the TGI in [1], in assay [2], in assay [3], in assay [4], in [5] and in assay [9] was > 100 µM in each case. The TGI in assay [6], in assay [7] and in assay [8] was > 100 µM in each case.
As for `CCOC(=O)C(NC(=O)c1[nH]cnc1/N=N/N(C)C)C(C)C` (stereo unspecified), the TGI in assay [1], in [2], in [3], in assay [5], in assay [9] and in assay [6] was > 100 µM in each case. Moreover, the TGI in [7] and in [8] was > 100 µM throughout.
Turning to `O=C1c2ccccc2C(=O)c2nc3ccc(Cl)cc3cc21`, the TGI in [1], in assay [2], in assay [3], in assay [4], in assay [5] and in assay [9] was > 100 µM in each case. Moreover, the TGI in [6], in [7] and in assay [8] was > 100 µM each time.
`COc1ccc2nc3ccccc3c(NCCCCN(C)CCCl)c2c1`: the TGI in assay [1] was 0.539 µM; in assay [2], 0.546 µM; in assay [3], 0.575 µM; in assay [5], 0.128 µM; in assay [9], 0.284 µM; in assay [10], 0.362 µM. Moreover, the TGI in assay [7] is 0.707 µM; in [8] it was 0.314 µM.
`CCOC(=O)C1COc2cc(-c3cc(=O)c4ccccc4o3)ccc2O1` (stereo unspecified): the TGI in assay [1] was > 100 µM; in assay [4], 39.3 µM; in assay [5], > 100 µM; in assay [9], 96.3 µM; in [10], > 100 µM; in assay [6], > 100 µM. Further, the TGI in assay [7] and in assay [8] was > 100 µM throughout.
Consider `OCNCCNc1nc2ccccc2c2[nH]c3ccccc3c12`, for which the GI50 in assay [1] was 0.441 µM; in [2], 0.371 µM; in [3] it was 1.47 µM; in [5] it was 1.26 µM; in [9], 0.189 µM; in [10], 1.11 µM. Besides, the GI50 in assay [6] is 0.809 µM; in [7], 2.1 µM. The TGI is 1.39 µM in [1]; 1.92 µM in [2]; 5.88 µM in assay [3]; 3.66 µM in assay [5]; 0.863 µM in assay [9]; 5.85 µM in assay [10]. In addition, the TGI is > 50 µM in [6] and 11.7 µM in assay [7].
For the compound `CC1CC[C@]2(C(=O)O)CCC3(C)C(=CCC4[C@@]5(C)CC[C@H](OS(=O)(=O)c6ccccc6)C(C)(C)C5CC[C@]43C)[C@@H]2[C@H]1C` (stereo partly specified), the TGI in assay [1], in assay [2], in [3], in [4], in assay [5] and in assay [9] was > 100 µM throughout. The TGI in assay [6], in assay [7] and in [8] was > 100 µM throughout.
With `CC1=NN(C(=O)c2ccccc2O)C(=O)/C1=C/c1cccc([N+](=O)[O-])c1`, the TGI in assay [1] is > 78.5 µM; in [3], > 100 µM; in assay [4], > 100 µM; in assay [5], 98.7 µM; in assay [9], 5.88 µM; in [6], > 100 µM. In addition, the TGI in assay [7] and in assay [8] was > 100 µM in each case.
On to `CC(=O)OC1CC2C(=O)C(=O)C1(C)C2(C)C` (stereo unspecified), for which the TGI in assay [2], in assay [3], in assay [4], in assay [5], in [6] and in assay [7] was > 100 µM throughout. Also, in assay [8], the TGI is > 100 µM.
Take `CC1(C)CC[C@]2(C(N)=O)CC[C@]3(C)C(=CC[C@@H]4[C@@]5(C)C/C(=C/c6ccncc6)C(=O)C(C)(C)[C@@H]5CC[C@]43C)[C@@H]2C1`: the GI50 in [2] was 2.01 µM; in [4], 1.76 µM; in assay [5] it was 1.82 µM; in assay [9], 1.81 µM; in assay [10] it was 1.59 µM; in assay [6], 2 µM. The GI50 in [7] is 1.59 µM; in [8], 2.05 µM. In addition, the TGI stood at 4.71 µM in [2]; 4.77 µM in [4]; 3.67 µM in [5]; 3.34 µM in assay [9]; 3.05 µM in [10]; 6.02 µM in assay [6]. For the same compound, the TGI in assay [7] was 3.24 µM; in [8] it was 4.62 µM.
For the compound `C[C@@H]1C[C@]2(C[C@@H](C)C3[C@@H](CC4(C)[C@@H]5CCC6C(C)(C)OC(=O)C=C[C@]67C[C@@]5(CC[C@]34C)OO7)O2)OC1=O` (stereo partly specified), the TGI in assay [1], in assay [3], in assay [5], in assay [9], in [10] and in [7] was > 100 µM each time. The TGI in assay [8] is > 100 µM.
Consider `COC(=O)CC(C(C(C)=O)C(=O)OCc1ccccc1)N1C(=O)OCC1c1ccccc1` (stereo unspecified), for which the TGI in assay [1], in assay [2], in [3], in [5], in assay [9] and in [10] was > 100 µM each time. Also, the TGI in assay [6], in [7] and in assay [8] was > 100 µM each time.
